# US10294236B2, “Compounds as rearranged during transfection (RET) inhibitors” (GLAXOSMITHKLINE INTELLECTUAL PROPERTY DEVELOPMENT LIMITED, priority 2014, dated 2019)
# Structures can show the parent of a compound that is named as a salt.
# Molecular target: T1, Human RET kinase cytoplasmic domain (Homo sapiens, UniProt P07949)
# T1 construct: made in house
# T1 sequence (P07949 658-1114): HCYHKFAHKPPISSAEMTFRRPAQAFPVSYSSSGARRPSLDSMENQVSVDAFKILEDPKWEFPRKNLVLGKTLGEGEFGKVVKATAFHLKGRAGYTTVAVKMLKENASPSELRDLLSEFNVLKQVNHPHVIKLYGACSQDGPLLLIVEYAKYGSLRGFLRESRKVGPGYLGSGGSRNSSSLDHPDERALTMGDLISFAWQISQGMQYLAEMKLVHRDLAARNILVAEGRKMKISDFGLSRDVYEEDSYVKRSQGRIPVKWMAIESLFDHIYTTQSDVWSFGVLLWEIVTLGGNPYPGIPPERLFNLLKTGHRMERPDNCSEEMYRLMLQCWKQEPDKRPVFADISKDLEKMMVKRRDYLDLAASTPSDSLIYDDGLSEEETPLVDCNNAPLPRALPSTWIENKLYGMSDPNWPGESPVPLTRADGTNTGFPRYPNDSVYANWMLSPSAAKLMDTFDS
# Assay: RET kinase enzymatic assay
# Format: biochemical
# Method: GST-RET was purified using glutathione sepharose chromatography. The RET kinase enzymatic assay was performed in a total volume of 10 uL with increasing concentrations of RET kinase inhibitor as a singlet in a 384 well format as follows: RET inhibitor compound plates are prepared by adding 100 nL of RET inhibitor at different concentrations to a 384-well plate. 5 μL/well of a 2× enzyme mix (50 mM HEPES (4-(2-hydroxyethyl)-1-piperazineethanesulfonic acid); 1 mM CHAPS (3-[(3-cholamidopropyl)dimethylammonio]-1-propanesulfonate); 0.1 mg/mL BSA (bovine serum albumin); 1 mM DTT (dithiothreitol); 0.2 nM RET kinase) was added to the 384-well plate and incubated for 30 minutes at 23° C. 5 µL/well of a 2× substrate mix (50 mM HEPES; 1 mM CHAPS; 0.1 mg/mL BSA; 20 μM adenosine triphosphate; 20 mM MgCl2 and 1 μM biotinylated peptide substrate) was added and incubated for 1 hour at 23° C. […] IC50s were fitted using GraphPad Prism to a sigmoidal dose response.
row,SMILES,IC50 [µM]
1,"CCOc1cc(-c2ncc(NC(=O)Nc3ccc(C(C)(C)CN)c(C(F)(F)F)c3)c(C)n2)c[nH]c1=O [Example 70, 1-(4-(1-Amino-2-methylpropan-2-yl)-3-(trifluoromethyl)phenyl)-3-(2-(5-ethoxy-6-oxo-1,6-dihydropyridin-3-yl)-4-methylpyrimidin-5-yl)urea dihydrochloride]",< 0.1
2,"CCOc1cc(-c2ncc(NC(=O)Nc3ccc(C(C)(C)C#N)c(C(F)(F)F)c3)c(C)n2)c[nH]c1=O [Example 23, 1-(4-(2-Cyanopropan-2-yl)-3-(trifluoromethyl)phenyl)-3-(2-(5-ethoxy-6-oxo-1,6-dihydropyridin-3-yl)-4-methylpyrimidin-5-yl)urea]",< 0.1
3,"CCOc1cc(-c2ncc(NC(=O)Nc3cc(C(=O)NCCN(C)C)cc(C(F)(F)F)c3)cn2)c[nH]c1=O [Example 189, N-(2-(Dimethylamino)ethyl)-3-(3-(2-(5-ethoxy-6-oxo-1,6-dihydropyridin-3-yl)-pyrimidin-5-yl)ureido)-5-(trifluoromethyl)benzamide]",< 0.1
4,"CCOc1cc(=O)[nH]cc1-c1ncc(NC(=O)Nc2ccc(CC3(C)COC3)c(C(F)(F)F)c2)c(C)n1 [Example 12, 1-(2-(4-Ethoxy-6-oxo-1,6-dihydropyridin-3-yl)-4-methylpyrimidin-5-yl)-3-(4-((3-methyloxetan-3-yl)methyl)-3-(trifluoromethyl)phenyl)urea]",< 0.1
5,CCOc1cc(-c2ncc(NC(=O)Nc3ccc(OC4(C)COC4)c(C(F)(F)F)c3)c(C)n2)c[nH]c1=O [Example 96],< 0.1
6,"CCOc1cc(-c2ncc(NC(=O)Nc3ccc(CC(C)(C)CO)c(C(F)(F)F)c3)c(C)n2)c[nH]c1=O [Example 48, 1-(2-(5-Ethoxy-6-oxo-1,6-dihydropyridin-3-yl)-4-methylpyrimidin-5-yl)-3-(4-(3-hydroxy-2,2-dimethylpropyl)-3-(trifluoromethyl)phenyl)urea]",< 0.1
7,"CCOc1cc(-c2ncc(NC(=O)Nc3ccc(C(C)C#N)c(C(F)(F)F)c3)c(C)n2)c[nH]c1=O (centres unmarked) [Example 25, 1-(4-(1-Cyanoethyl)-3-(trifluoromethyl)phenyl)-3-(2-(5-ethoxy-6-oxo-1,6-dihydropyridin-3-yl)-4-methylpyrimidin-5-yl)urea]",< 0.1
8,"CCOc1cc(-c2ncc(NC(=O)Nc3cnc(C(C)(C)O)c(C(F)(F)F)c3)c(C)n2)c[nH]c1=O [Example 29, 1-(2-(5-Ethoxy-6-oxo-1,6-dihydropyridin-3-yl)-4-methylpyrimidin-5-yl)-3-(6-(2-hydroxypropan-2-yl)-5-(trifluoromethyl)pyridin-3-yl)urea]",< 0.1
9,"Cc1nc(-c2c[nH]c(=O)c3occc23)ncc1NC(=O)Nc1cnc(C(C)(C)O)c(C(F)(F)F)c1 [Example 39, 1-(6-(2-Hydroxypropan-2-yl)-5-(trifluoromethyl)pyridin-3-yl)-3-(4-methyl-2-(7-oxo-6,7-dihydrofuro[2,3-c]pyridin-4-yl)pyrimidin-5-yl)urea]",< 0.1
10,CCOc1cc(-c2ccc(NC(=O)Nc3ccc(OC4(C)COC4)c(C(F)(F)F)c3F)c(F)c2)c[nH]c1=O [Example 166],< 0.1
11,CCOc1cc(-c2ccc(NC(=O)Nc3ccc(OC4(C)COC4)c(C(F)(F)F)c3)cn2)c[nH]c1=O [Example 106],< 0.1
12,"CCOc1cc(-c2ncc(NC(=O)Nc3cc(OCCN(C)C)cc(C(F)(F)F)c3)c(C)n2)c[nH]c1=O [Example 74, 1-(3-(2-(Dimethylamino)ethoxy)-5-(trifluoromethyl)phenyl)-3-(2-(5-ethoxy-6-oxo-1,6-dihydropyridin-3-yl)-4-methylpyrimidin-5-yl)urea dihydrochloride]",< 0.1
13,CCOc1cc(-c2cnc(NC(=O)Nc3ccc(CN(C)C)c(C(F)(F)F)c3)c(C)n2)c[nH]c1=O [Example 114],0.1 to 0.5
14,"CCOc1cc(-c2ncc(NC(=O)Nc3ccc(C4(CO)CC4)c(C(F)(F)F)c3)c(C)n2)c[nH]c1=O [Example 66, 1-(2-(5-Ethoxy-6-oxo-1,6-dihydropyridin-3-yl)-4-methylpyrimidin-5-yl)-3-(4-(1-(hydroxymethyl)cyclopropyl)-3-(trifluoromethyl)phenyl)urea hydrochloride]",< 0.1
15,Cc1cc(-c2ccc(=O)[nH]c2)ccc1NC(=O)Nc1ccc(OC2(C)COC2)c(C(F)(F)F)c1 [Example 137],< 0.1
16,"CCOc1cc(=O)[nH]cc1-c1ncc(NC(=O)Nc2cc(C(C)(C)C(F)(F)F)on2)cn1 [Example 180, 1-(2-(4-Ethoxy-6-oxo-1,6-dihydropyridin-3-yl)pyrimidin-5-yl)-3-(5-(1,1,1-trifluoro-2-methylpropan-2-yl)isoxazol-3-yl)urea hydrochloride]",< 0.1
17,CCOc1cc(-c2ncc(NC(=O)Nc3cc(OCCN4CCOCC4)cc(C(F)(F)F)c3)c(C)n2)c[nH]c1=O [Example 99],< 0.1
18,"CCOc1cc(-c2ncc(NC(=O)Nc3cc(C(F)(F)F)c(CN4CCN(CC)CC4)cc3F)cn2)c[nH]c1=O [Example 183, 1-(2-(5-Ethoxy-6-oxo-1,6-dihydropyridin-3-yl)pyrimidin-5-yl)-3-(4-((4-ethylpiperazin-1-yl)methyl)-2-fluoro-5-(trifluoromethyl)phenyl)urea trihydrochloride]",< 0.1
19,CCOc1cc(Oc2ccc(NC(=O)Nc3ccc(OC4(C)COC4)c(C(F)(F)F)c3)cn2)c[nH]c1=O [Example 101],< 0.1
20,"CCOc1cc(-c2ccc(NC(=O)Nc3cc(C(C)(C)C(F)(F)F)on3)c(F)c2)c[nH]c1=O [Example 11, 1-(4-(5-Ethoxy-6-oxo-1,6-dihydropyridin-3-yl)-2-fluorophenyl)-3-(5-(1,1,1-trifluoro-2-methylpropan-2-yl)isoxazol-3-yl)urea]",< 0.1
21,CCOc1cc(-c2cnc(NC(=O)Nc3ccc(OC4(C)COC4)c(C(F)(F)F)c3)c(F)c2)c[nH]c1=O [Example 103],< 0.1
22,"CCOc1cc(=O)[nH]cc1-c1ncc(NC(=O)Nc2cccc(C(F)(F)F)c2)c(C)n1 [Example 38, 1-(2-(4-Ethoxy-6-oxo-1,6-dihydropyridin-3-yl)-4-methylpyrimidin-5-yl)-3-(3-(trifluoromethyl)phenyl)urea]",< 0.1

# Continued, values first:
row,IC50 [µM],SMILES
1,< 0.1,CCOc1cc(-c2ccc(NC(=O)Nc3cc(C(F)(F)F)ccc3O)c(F)c2)c[nH]c1=O [Example 141]
2,< 0.1,CC(C)(O)c1ccc(NC(=O)Nc2ccc(-c3c[nH]c(=O)c4ccccc34)cc2F)cc1C(F)(F)F [Example 75]
3,< 0.1,CCCOc1cc(-c2ccc(NC(=O)Nc3ccc(OC4(C)COC4)c(C(F)(F)F)c3)c(F)c2)c[nH]c1=O [Example 138]
4,< 0.1,"Cc1cc(-c2ccc(NC(=O)Nc3ccc(OC4(C)COC4)c(C(F)(F)F)c3)c(F)c2)c[nH]c1=O [Example 7, 1-(2-fluoro-4-(5-methyl-6-oxo-1,6-dihydropyridin-3-yl)phenyl)-3-(4-((3-methyloxetan-3-yl)oxy)-3-(trifluoromethyl)phenyl)urea]"
5,< 0.1,CCOc1cc(-c2ccc(NC(=O)Nc3ccc(Cc4cnn(C)c4)c(C(F)(F)F)c3)c(F)c2)c[nH]c1=O [Example 146]
6,< 0.1,"CCOc1cc(=O)[nH]cc1-c1ncc(NC(=O)Nc2ccc(C(C)(C)C(N)=O)c(C(F)(F)F)c2)c(C)n1 [Example 61, 2-(4-(3-(2-(4-Ethoxy-6-oxo-1,6-dihydropyridin-3-yl)-4-methylpyrimidin-5-yl)ureido)-2-(trifluoromethyl)phenyl)-2-methylpropanamide]"
7,< 0.1,"CCOc1cc(=O)[nH]cc1-c1ncc(NC(=O)Nc2ccc(C(C)(C)O)c(C(F)(F)F)c2)c(C)n1 [Example 51, 1-(2-(4-Ethoxy-6-oxo-1,6-dihydropyridin-3-yl)-4-methylpyrimidin-5-yl)-3-(4-(2-hydroxypropan-2-yl)-3-(trifluoromethyl)phenyl)urea]"
8,< 0.1,CCOc1cc(=O)[nH]cc1-c1ccc(NC(=O)Nc2cc(C(F)(F)F)ccc2F)c(F)c1 [Example 128]
9,< 0.1,CCOc1ccc(NC(=O)Nc2ccc(-c3c[nH]c(=O)c(OCC)c3)cc2F)cc1C(F)(F)F [Example 80]
10,< 0.1,"CCOc1cc(-c2ccc(NC(=O)Nc3cc(-n4cnc(C)c4)cc(C(F)(F)F)c3)c(F)c2)c[nH]c1=O [Example 2, 1-(4-(5-Ethoxy-6-oxo-1,6-dihydropyridin-3-yl)-2-fluorophenyl)-3-(3-(4-methyl-1H-imidazol-1-yl)-5-(trifluoromethyl)phenyl)urea]"
11,< 0.1,CCOc1cc(-c2ccc(NC(=O)Nc3ccc(C(N)=O)c(C(F)(F)F)c3)c(F)c2)c[nH]c1=O [Example 162]
12,< 0.1,CC(C)Oc1cc(-c2ccc(NC(=O)Nc3ccc(OC4(C)COC4)c(C(F)(F)F)c3)c(F)c2)c[nH]c1=O [Example 136]
13,< 0.1,CCOc1ccc(NC(=O)Nc2ccc(-c3c[nH]c(=O)c4ccoc34)cc2F)cc1C(F)(F)F [Example 98]
